Patent US8815882B2, “Pyrazole aminopyrimidine derivatives as LRRK2 modulators” (Genentech, Inc., priority 2010, dated 2014)

biological target: T1, LRRK2 (Homo sapiens, UniProt Q5S007, G2019S); assay: In Vitro LRRK2 Assay (LabChip 3000, fluorescently-labeled peptide substrate, ATP); format: biochemical; details: Table 10; LRRK2 Ki (micromolar); read-out: LRRK2 Ki (KI)
T1 construct: purchased Invitrogen PV4882 (lot 567054A)
Summary of the method: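 Read-out was LabChip capillary electrophoresis, resolving phospho- from non-phospho-peptide by fluorescence intensity. The kinase reaction combined enzyme, ATP, test compound and labeled peptide (4 μM working dilution) for 2 h in darkness before stop solution. Values were reported as Ki, from a tight-binding model with Et, S and Km, or as IC50 or percent inhibition.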

T1 sequence (Q5S007 whole entry G2019S): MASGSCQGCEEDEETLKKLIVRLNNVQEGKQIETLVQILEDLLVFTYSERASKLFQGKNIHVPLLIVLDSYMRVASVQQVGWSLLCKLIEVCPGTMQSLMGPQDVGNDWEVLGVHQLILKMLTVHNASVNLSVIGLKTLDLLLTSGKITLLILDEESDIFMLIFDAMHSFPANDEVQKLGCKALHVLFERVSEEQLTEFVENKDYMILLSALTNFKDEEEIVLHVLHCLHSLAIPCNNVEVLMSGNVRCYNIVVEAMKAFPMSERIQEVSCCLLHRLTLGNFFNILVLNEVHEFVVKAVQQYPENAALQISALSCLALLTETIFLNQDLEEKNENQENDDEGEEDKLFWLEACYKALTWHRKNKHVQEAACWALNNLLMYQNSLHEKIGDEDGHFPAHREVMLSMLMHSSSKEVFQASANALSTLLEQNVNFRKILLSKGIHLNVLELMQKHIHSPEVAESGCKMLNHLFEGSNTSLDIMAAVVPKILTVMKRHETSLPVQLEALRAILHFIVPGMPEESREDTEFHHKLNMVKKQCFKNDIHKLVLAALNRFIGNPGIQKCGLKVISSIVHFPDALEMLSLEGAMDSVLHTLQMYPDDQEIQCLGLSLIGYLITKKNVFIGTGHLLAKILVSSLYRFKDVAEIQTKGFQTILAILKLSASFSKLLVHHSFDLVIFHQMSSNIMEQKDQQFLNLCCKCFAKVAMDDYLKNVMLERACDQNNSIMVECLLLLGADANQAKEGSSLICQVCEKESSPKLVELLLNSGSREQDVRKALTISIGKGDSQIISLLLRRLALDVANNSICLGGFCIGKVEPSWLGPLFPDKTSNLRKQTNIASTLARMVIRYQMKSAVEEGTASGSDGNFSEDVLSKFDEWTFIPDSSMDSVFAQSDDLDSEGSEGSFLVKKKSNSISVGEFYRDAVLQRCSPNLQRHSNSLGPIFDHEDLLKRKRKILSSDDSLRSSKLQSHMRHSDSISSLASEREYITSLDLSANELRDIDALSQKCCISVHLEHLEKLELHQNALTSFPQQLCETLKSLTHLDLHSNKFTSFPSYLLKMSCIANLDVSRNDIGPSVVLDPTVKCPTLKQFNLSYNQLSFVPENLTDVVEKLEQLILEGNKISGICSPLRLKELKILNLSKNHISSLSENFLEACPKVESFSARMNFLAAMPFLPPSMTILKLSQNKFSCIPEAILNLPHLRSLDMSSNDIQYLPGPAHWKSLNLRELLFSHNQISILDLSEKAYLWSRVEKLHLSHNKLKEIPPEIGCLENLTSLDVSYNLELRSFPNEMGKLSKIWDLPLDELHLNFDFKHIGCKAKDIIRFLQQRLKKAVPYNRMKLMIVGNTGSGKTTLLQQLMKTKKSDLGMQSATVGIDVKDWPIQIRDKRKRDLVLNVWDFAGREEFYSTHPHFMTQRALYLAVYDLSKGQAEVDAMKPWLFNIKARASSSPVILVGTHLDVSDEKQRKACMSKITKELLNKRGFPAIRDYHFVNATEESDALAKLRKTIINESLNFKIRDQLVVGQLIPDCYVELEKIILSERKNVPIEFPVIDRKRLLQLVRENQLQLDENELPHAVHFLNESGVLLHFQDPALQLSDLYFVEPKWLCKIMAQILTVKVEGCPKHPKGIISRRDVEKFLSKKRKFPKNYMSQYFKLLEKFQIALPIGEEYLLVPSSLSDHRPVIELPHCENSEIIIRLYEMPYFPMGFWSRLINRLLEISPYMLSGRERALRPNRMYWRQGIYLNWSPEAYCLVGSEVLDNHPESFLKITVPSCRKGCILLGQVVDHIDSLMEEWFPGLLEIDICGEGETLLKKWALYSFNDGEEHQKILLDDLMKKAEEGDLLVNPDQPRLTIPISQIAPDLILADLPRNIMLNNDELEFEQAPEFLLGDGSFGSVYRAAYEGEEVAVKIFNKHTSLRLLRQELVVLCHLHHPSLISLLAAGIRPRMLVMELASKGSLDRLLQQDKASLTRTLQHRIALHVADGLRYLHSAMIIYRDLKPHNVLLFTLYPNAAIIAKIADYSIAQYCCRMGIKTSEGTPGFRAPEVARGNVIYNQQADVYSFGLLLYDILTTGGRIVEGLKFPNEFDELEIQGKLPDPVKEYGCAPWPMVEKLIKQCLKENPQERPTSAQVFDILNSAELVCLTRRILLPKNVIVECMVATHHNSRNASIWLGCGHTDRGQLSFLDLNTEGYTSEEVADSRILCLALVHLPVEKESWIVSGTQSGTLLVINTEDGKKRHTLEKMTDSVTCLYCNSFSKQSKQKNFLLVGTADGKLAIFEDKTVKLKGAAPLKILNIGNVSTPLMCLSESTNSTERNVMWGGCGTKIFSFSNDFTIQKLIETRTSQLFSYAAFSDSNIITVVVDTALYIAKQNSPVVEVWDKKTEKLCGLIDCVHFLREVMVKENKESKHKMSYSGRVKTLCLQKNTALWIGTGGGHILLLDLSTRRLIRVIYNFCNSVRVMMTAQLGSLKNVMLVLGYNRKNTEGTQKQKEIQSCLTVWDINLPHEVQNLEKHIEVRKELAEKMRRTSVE

Compound	Ki [nM]
CNc1nc(Nc2cn(C(C)(C)C(=O)NC(C)(C)C)nc2C)ncc1C(F)(F)F [Example 423, N-tert-butyl-2-methyl-2-(3-methyl-4-(4-(methylamino)-5-(trifluoromethyl)pyrimidin-2-ylamino)-1H-pyrazol-1-yl)propanamide]	73
CCNC(=O)C(C)(C)n1ncc(Nc2ncc(C(F)(F)F)c(NC)n2)c1Cl [Example 425, 2-(5-chloro-4-(4-(methylamino)-5-(trifluoromethyl)pyrimidin-2-ylamino)-1H-pyrazol-1-yl)-N-ethyl-2-methyl propanamide]	35.5
CNc1nc(Nc2cn(C(C)(C)C(=O)NCC3CC3)nc2C)ncc1C(F)(F)F [Example 427, N-(cyclopropylmethyl)-2-methyl-2-(3-methyl-4-(4-(methylamino)-5-(trifluoromethyl)pyrimidin-2-ylamino)-1H-pyrazol-1-yl)propanamide]	52
CCNC(=O)C1(n2cc(Nc3ncc(C(F)(F)F)c(NC)n3)c(C)n2)CCC1 [Example 428]	24
CNC(=O)C(C)(C)n1cc(Nc2ncc(C(F)(F)F)c(NC)n2)c(C)n1 [Example 432, N,2-dimethyl-2-(3-methyl-4-(4-(methylamino)-5-(trifluoromethyl)pyrimidin-2-ylamino)-1H-pyrazol-1-yl)propanamide]	18.4
COC(=O)C(C)(C)n1ncc(Nc2ncc(Cl)c(OC)n2)c1C [Example 434, 2-[4-(5-Chloro-4-methoxy-pyrimidin-2-ylamino)-5-methyl-pyrazol-1-yl]-2-methyl-propionic acid methyl ester]	12.2
COC(=O)C(C)(C)n1cc(Nc2ncc(Cl)c(OC)n2)c(C)n1 [Example 435, 2-[4-(5-Chloro-4-methoxy-pyrimidin-2-ylamino)-3-methyl-pyrazol-1-yl]-2-methyl-propionic acid methyl ester]	35.5
CNc1nc(Nc2cn([C@@H](C)C(=O)N(C)C)nc2C)ncc1C(F)(F)F [Example 436, (S)-N,N-Dimethyl-2-[3-methyl-4-(4-methylamino-5-trifluoromethyl-pyrimidin-2-ylamino)-pyrazol-1-yl]-propionamide]	30.3
CCNC(=O)C1(n2ncc(Nc3ncc(C(F)(F)F)c(NC)n3)c2C)CCC1 [Example 442, 1-[5-Methyl-4-(4-methylamino-5-trifluoromethyl-pyrimidin-2-ylamino)-pyrazol-1-yl]-cyclobutane-carboxylic acid ethylamide]	15.6
CNc1nc(Nc2cnn(C(C)(C)C(=O)NCC(F)(F)F)c2C)ncc1C(F)(F)F [Example 443, 2-[5-Methyl-4-(4-methylamino-5-trifluoromethyl-pyrimidin-2-ylamino)-pyrazol-1-yl]-N-(2,2,2-trifluoro-ethyl)-isobutyramide]	66.6

Stronger by Ki, values ahead:

Ki [nM]	Compound
9.5	CCNC(=O)C(C)(C)n1cc(Nc2ncc(C(F)(F)F)c(NC)n2)c(C)n1 [Example 440, N-Ethyl-2-[3-methyl-4-(4-methylamino-5-trifluoromethyl-pyrimidin-2-ylamino)-pyrazol-1-yl]-isobutyramide]
9	CNc1nc(Nc2cnn(C(C)(C)C(=O)NCC3CC3)c2C)ncc1C(F)(F)F [Example 426, N-(cyclopropylmethyl)-2-methyl-2-(5-methyl-4-(4-(methylamino)-5-(trifluoromethyl)pyrimidin-2-ylamino)-1H-pyrazol-1-yl)propanamide]
6.5	CNc1nc(Nc2cn([C@H](C)C#N)nc2C)ncc1C(F)(F)F [Example 437]
6.3	CNc1nc(Nc2cn(C(C)(C)C(=O)NCC(F)(F)F)nc2C)ncc1C(F)(F)F [Example 424]
5.8	COc1nc(Nc2cn(C(C)(C)C#N)nc2C2CC2)ncc1Cl [Example 438, 2-[4-(5-Chloro-4-methoxy-pyrimidin-2-ylamino)-3-cyclopropyl-pyrazol-1-yl]-2-methyl-propionitrile]
1.6	CNc1nc(Nc2cnn([C@H](C)C#N)c2C)ncc1C(F)(F)F [Example 439, (R)-2-[5-Methyl-4-(4-methylamino-5-trifluoromethyl-pyrimidin-2-ylamino)-pyrazol-1-yl]-propionitrile]
